In patent US10160705B2, “Class of HDAC inhibitors expands the renal progenitor cells population and improves the rate of recovery from acute kidney injury” (University of Pittsburgh—Of the Commonwealth System of …, priority 2011, dated 2018):
Like-named read-outs stand apart in the source and are kept apart here.

How the values were obtained:
zebrafish embryos = test: Phenotypic screen for edema and survival in zebrafish larvae at 72 hpf; settings: for Dead / Edemic 1 (E1) / Edemic 2 (E2) / Edemic 3 (E3) / Wild-type (WT): number of larvae (of 36), 3 μM from 2 hpf, scored at 72 hpf; for effect on zebrafish embryos in the phenotypic screen: 3 μM
Procedure: The screen was performed in zebrafish embryos using the National Cancer Institute's Developmental Therapeutics Program (NCI/DTP) Diversity Set I. This library contains 1990 compounds selected by pharmacophore modeling to represent the more than 140,000 small molecules maintained in the NCI/DTP Open Repository. Compounds from the NCI/DTP Diversity Set I were diluted to 10 μM in E3 embryo medium (5 mM NaCl, 0.33 mM CaCl2, 0.33 mM MgSO4, and 0.17 mM KCl) in a final DMSO concentration of 0.5% and arrayed in 96-well plates. Beginning at approximately 2 hpf, embryos were transferred to each well in groups of five using a glass pipette. The plates were incubated at 28.5° C. for 70 hours. Individual wells were then scored for a dominant phenotype, representative of at least four of the five embryos. The primary objective was to identify compounds that caused edema in treated embryos at 72 hpf. Small molecules generating edema were retested once for verification, before obtaining additional compound from the NCI/DTP Open Repository.
PTBA was synthesized as described below. Hydroxyurea and aphidicolin were obtained from Sigma-Aldrich. Groups of 20 to 30 chorionated 2 hpf embryos were arrayed in individual wells of 12-well plates. E3 medium was removed with a glass pipette and replaced with 1.5 ml treatment solutions containing 0.5% DMSO in E3 with or without compound at the reported concentrations. Treatments for all studies were initiated at 2 hpf, except for the temporal studies (FIG. 6) and the HUA studies (FIG. 11). HUA studies were performed as described previously (Zhang, L., et al. Cell cycle progression is required for zebrafish somite morphogenesis but not segmentation clock function. Development 135, 2065-2070, (2008)), with the following modifications. HUA in 0.5% DMSO was added at early gastrulation (5 hpf) and PTBA was subsequently added at late gastrulation (8 hpf) to allow for penetration of the proliferation inhibitors. All embryos were incubated at 28.5° C. until the required developmental stage.
Following 70 hours of treatment (as described above), edemic phenotypes in 72 hpf larvae were scored using a phenotype-based classification system. Wild type: no visible edema or developmental delay. […] Significant effects (p<0.05) on survival were determined by two-tailed Fisher's exact test in comparison with the 0 μM PTBA treatment group.
PTBA and methyl-4-(phenylthio)butanoate were synthesized as described above. 4-(Naphthalen-2-ylthio)butanoic acid (NSC2733) and 3-(phenylthio)benzoic acid (NSC113994), were obtained from the NCI/DTP Open Repository. APHA compound 8, Apicidin, butanoic acid, PBA, 4-phenoxybutanoic acid, 5-phenylpentanoic acid, Scriptaid, TSA, and valproic acid were obtained from Sigma-Aldrich. MS-275 and SAHA were obtained from Cayman Chemical Co. 4-(phenylsulfonyl)butanoic acid was obtained from Matrix Scientific. Tubacin was a gift of Dr. Ralph Mazitschek of the Broad Institute (Cambridge, Mass.). The remaining PTBA analogs were synthesized. Three independent groups of 12 chorionated 2 hpf embryos were arrayed in individual wells of 24-well plates. E3 medium was removed with a glass pipette and replaced with 800 μl treatment solutions containing 0.5% DMSO in E3 with or without compound at the reported concentrations.
Phenotypic screening of PTBA analogs was performed identically to the concentration-response experiments detailed above. Embryos were treated with each PTBA analog from 2 to 72 hpf as described above.

renal progenitor cells = test: In situ hybridization for lhx1a expression in 10-somite embryos (renal progenitor cell expansion); type: in vivo; settings: for Lhx1a expansion caused by analog treatment, 200 nM: 200 nM from 2 hpf; for Lhx1a expansion caused by analog treatment, 400 nM: 400 nM from 2 hpf; for Lhx1a expansion caused by analog treatment, 800 nM: 800 nM from 2 hpf; for responders at 0.2 µM: 200 nM, read-out: Expansion of Cells (including repeats* and recounts**) 200 nM; for EC50: first pass EC50 from percent expansion (Excel trendline), average where several experiments
Procedure: PTBA was synthesized as described below. Hydroxyurea and aphidicolin were obtained from Sigma-Aldrich.
In situ hybridization and immunocytochemistry: In situ hybridization was performed as previously described with some modifications.142 Hybridization temperature was 65° C. Embryos were blocked in 2% blocking reagent (Roche) with 5% sheep serum in MAB (100 mM maleic acid and 150 mM NaCl [pH 7.5]). Whole-mount immunocytochemistry with 1:25 mouse anti-α6F antibody (Developmental Studies Hybridoma Bank) and 1:100 Cy3 secondary antibody (Jackson ImmunoResearch) was performed as described previously.108 Embryos were embedded in JB-4 for sectioning per the manufacturer's instructions (Polysciences), sectioned at 5 μm, and mounted with Cytoseal 60 (Richard-Allan Scientific).
The remaining PTBA analogs were synthesized.
In situ hybridization for lhx1a was performed as described above. […] Compounds were classified as effective, partially-effective or ineffective based on comparison to the effects of PTBA at a given concentration.
Testing of the compounds is on-going, but for those tested, Table 6 provides first pass EC50s based upon colormetric in situ hybridizations for the Lhx1a mRNA expression levels. After the procedure is run, in situ hybridization is done for the lhx1 mRNA expression and the number of embryos that show an expanded kidney field is manually counted to establish the percent of embryos showing expansion. Then the EC50 is determined by plotting the percent expansion in Excel, graphing the results and using the trendline function to determine the 50 percent point.

[1] = 1.5 μM from 2 hpf, 10-somite embryos
[2] = 3 μM from 2 hpf, 10-somite embryos
[3] = Danio rerio, 1.5 μM from 2 hpf, 10-somite embryos, read-out: lhx1a expansion, percent of treated embryos
[4] = Danio rerio, percent of embryos with expanded kidney field, 1.5 μM, read-out: Expansion of Cells (including repeats* and recounts**) 1.5 μM
[5] = Danio rerio, percent of embryos with expanded kidney field, 3 μM, read-out: Expansion of Cells (including repeats* and recounts**) 3 μM
[6] = Danio rerio, percent of embryos with expanded kidney field
[7] = Danio rerio, read-out: lhx1a expansion, percent of treated embryos, 400 nM from 2 hpf, 10-somite embryos
[8] = Danio rerio, 3 μM from 2 hpf, 10-somite embryos, read-out: lhx1a expansion, percent of treated embryos

Row | SMILES | Dead (zebrafish embryos) | Edemic 1 (E1) (zebrafish embryos) | Edemic 2 (E2) (zebrafish embryos) | Edemic 3 (E3) (zebrafish embryos) | Wild-type (WT) (zebrafish embryos) | Lhx1a expansion caused by analog treatment, 1.5 μM (renal progenitor cells; [1]) | Lhx1a expansion caused by analog treatment, 3 μM (renal progenitor cells; [2]) | responders at 1.5 µM (renal progenitor cells; [3]) | Lhx1a expansion caused by analog treatment, 800 nM (renal progenitor cells; 10-somite embryos) | further results
1 | COC(=O)CCCSc1ccc(Cl)cc1 [UPHD-00021, methyl 4-[(4-chloro-phenyl)sulfanyl]butanoate] | 1 | 10 | 6 | 19 | 0 | +/− | + | 72% |  | responders at 1.5 µM (renal progenitor cells; [4]): 72%; responders at 3 µM (renal progenitor cells; [5]): 97%
2 | O=C(O)c1cccc(Sc2ccccc2)c1 [3-(phenylthio)benzoic acid, reference compound] | 0 | 34 | 0 | 0 | 2 |  | − |  |  | lhx1a expansion, percent of treated embryos (renal progenitor cells; [2]): no expansion
3 | O=C(CCCSc1ccc(F)cc1)NO [UPHD-00029, 4-[(4-fluoro-phenyl)sulfanyl]-N-hydroxybutanamide] | 28 | 0 | 0 | 8 | 0 | + | + | 100% | + | Lhx1a expansion caused by analog treatment, 200 nM (renal progenitor cells; 10-somite embryos): −; Lhx1a expansion caused by analog treatment, 400 nM (renal progenitor cells; 10-somite embryos): +/−; responders at 0.2 µM (renal progenitor cells; [6]): 6%; responders at 1.5 µM (renal progenitor cells; [4]): 100%; responders at 3 µM (renal progenitor cells; [5]): 100%; responders at 0.4 µM (renal progenitor cells; [7]): 35%; responders at 0.8 µM (renal progenitor cells; Danio rerio, read-out: lhx1a expansion, percent of treated embryos, 800 nM from 2 hpf, 10-somite embryos): 60%; EC50 (renal progenitor cells; Danio rerio): 1310 nM
4 | CCC(C)OC(=O)CCCSc1ccccc1 (centres unmarked) [VNK-I-154] | 1 | 19 | 12 | 2 | 2 | + | + | 89% | +/− | 
5 | CCCC(=O)O [butanoic acid, reference compound] | 1 | 0 | 0 | 0 | 35 |  | − |  |  | 
6 | O=C(O)CCCOc1ccccc1 [4-phenoxybutanoic acid, reference compound] | 0 | 0 | 0 | 0 | 36 |  | − |  |  | responders at 3 µM (renal progenitor cells; [8]): 13%
7 | O=C(CCCSc1ccccc1)NO [UPHD-00023, N-hydroxy- 4(phenyl- sulfanyl)butanamide] | 0 | 3 | 20 | 13 | 0 | + | + | 92% | +/− | responders at 0.2 µM (renal progenitor cells; [6]): 0%; responders at 0.4 µM (renal progenitor cells; Danio rerio, percent of embryos with expanded kidney field, 400 nM, read-out: Expansion of Cells (including repeats* and recounts**) 400 nM): 6%; responders at 1.5 µM (renal progenitor cells; [4]): 92%; responders at 3 µM (renal progenitor cells; [5]): 100%; EC50 (renal progenitor cells; Danio rerio): 1300 nM
8 | CCC(=O)CCCCC[C@@H]1NC(=O)[C@H]2CCCCN2C(=O)[C@H]([C@@H](C)CC)NC(=O)[C@H](Cc2cn(OC)c3ccccc23)NC1=O [apicidin, reference compound] | 36 | 0 | 0 | 0 | 0 |  |  |  | XX^1 | Lhx1a expansion caused by analog treatment, 200 nM (renal progenitor cells; 10-somite embryos): −; Lhx1a expansion caused by analog treatment, 400 nM (renal progenitor cells; 10-somite embryos): +/−; treated embryos killed (renal progenitor cells; 800 nM): 69%; embryos surviving treatment (renal progenitor cells; 800 nM, n=36): 31%; lethality before the 10-somite stage (renal progenitor cells; 1.5 μM): lethal; lethality before the 10-somite stage (renal progenitor cells; 3 μM): killed all treated embryos; responders at 0.4 µM (renal progenitor cells; [7]): 22%
9 | Nc1ccccc1NC(=O)c1ccc(CNC(=O)OCc2cccnc2)cc1 [MS-275, reference compound] | 0 | 0 | 0 | 0 | 36 |  | − |  |  | effect on zebrafish embryos in the phenotypic screen (zebrafish embryos): no effect
10 | O=C(CCCCCCC(=O)Nc1ccccc1)NO [SAHA, reference compound] | 0 | 0 | 0 | 0 | 36 |  | − |  |  | effect on zebrafish embryos in the phenotypic screen (zebrafish embryos): no effect
11 | O=C(CCCCCN1C(=O)c2cccc3cccc(c23)C1=O)NO [Scriptaid, reference compound] | 0 | 1 | 0 | 0 | 35 |  | +/− |  |  | responders at 3 µM (renal progenitor cells; [8]): 39%
